In brackets after ≈: the same amount, converted by molar mass.
How the values were obtained:
Assay in all cases: Broth microdilution MIC in CAMHB
Format in all cases: cell-based
[1] = test system: K. pneumoniae UMM producing SHV-5 and KPC-2; conditions: Klebsiella pneumoniae, read-out: Minimum Inhibitory Concentration, K. pneumoniae UMM
Summary of the method: (§1)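 CLSI broth microdilution in CAMHB: 2-fold compound dilutions inoculated at 2-8×10^5 CFU/mL from 3-5 h log-phase cultures. Incubated at 37 °C for 16-20 h (Enterobacteriaceae, Pseudomonas); MIC read visually as lowest concentration without growth. Strains include hyper-permeable and efflux-deficient mutants.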

[2] = test system: E. coli AG100A; conditions: Escherichia coli, read-out: Minimum Inhibitory Concentration, E. coli AG100A
Summary of the method: as §1

[3] = test system: P. aeruginosa (ΔmexAB-oprM); conditions: Pseudomonas aeruginosa, read-out: Minimum Inhibitory Concentration, P. aeruginosa ΔmexAB-OprM
Summary of the method: as §1

[4] = test system: A. baumannii ATCC 19606; conditions: Acinetobacter baumannii, ATCC19606; MHB; read-out: Minimum Inhibitory Concentration, A. baumannii ATCC 19606
Summary of the method: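 Lowest compound concentration with no visible growth after 16-20 h at 37 °C defines MIC. Plates of 2-fold serial dilutions in cation-adjusted Mueller Hinton broth received 2-8×10^5 CFU/mL of exponentially grown cells, per CLSI methods; panel spans reference, hyper-permeable and efflux-pump-deleted strains.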

[5] = test system: K. pneumoniae 848844 producing SHV-11 and KPC-2; conditions: Klebsiella pneumoniae, read-out: Minimum Inhibitory Concentration, K. pneumoniae 848844
Summary of the method: as §1

[6] = test system: E. coli D22; conditions: Escherichia coli; E. coli D22 (hyper-permeable); MHB; read-out: Minimum Inhibitory Concentration, E. coli D22
Summary of the method: as §1

[7] = test system: P. aeruginosa ATCC 35151; conditions: Pseudomonas aeruginosa, ATCC35151; MHB; hyper-permeable strain; read-out: Minimum Inhibitory Concentration, P. aeruginosa ATCC 35151
Summary of the method: as §1

[8] = test system: E. coli 901C; conditions: Escherichia coli; E. coli 901C (hyper-permeable); MHB; read-out: Minimum Inhibitory Concentration, E. coli 901C
Summary of the method: as §1

[9] = test system: E. coli AG100; conditions: Escherichia coli; E. coli AG100 (wild-type parent); MHB; read-out: Minimum Inhibitory Concentration, E. coli AG100
Summary of the method: as §1

[10] = test system: K. pneumoniae SI-117 producing VIM-1; conditions: Klebsiella pneumoniae, read-out: Minimum Inhibitory Concentration, K. pneumoniae SI-117
Summary of the method: as §1

[11] = test system: E. coli ATCC 25922; conditions: Escherichia coli, ATCC25922; E. coli ATCC 25922; MHB; read-out: Minimum Inhibitory Concentration, E. coli 25922
Summary of the method: as §1

[12] = test system: P. aeruginosa ATCC 27853; conditions: Pseudomonas aeruginosa, ATCC27853; MHB; read-out: Minimum Inhibitory Concentration, P. aeruginosa ATCC 27853
Summary of the method: as §1

Row | SMILES | MIC [1] [µg/mL] | MIC [2] [µg/mL] | MIC [3] [µg/mL] | MIC [4] [µg/mL] | MIC [5] [µg/mL] | MIC [6] [µg/mL] | MIC [7] [µg/mL] | MIC [8] [µg/mL] | MIC [9] [µg/mL] | MIC [10] [µg/mL] | MIC [11] [µg/mL] | MIC [12] [µg/mL]
1 | CCN1CCN(C(=O)N[C@@H](C(=O)N[C@H]2Cc3cccc(C(=O)O)c3OB2O)c2c(O)cc(O)cc2F)C(=O)C1=O (single isomer, unassigned) [Example 182] | 8 to 16 (≈ 14.3 to 28.7 µM) | 0.5 to 1 (≈ 0.896 to 1.79 µM) | 8 to 16 (≈ 14.3 to 28.7 µM) | 32 to 64 (≈ 57.3 to 115 µM) | 32 to 64 (≈ 57.3 to 115 µM) | 0.5 to 1 (≈ 0.896 to 1.79 µM) | 2 to 4 (≈ 3.58 to 7.16 µM) | < 0.25 | 8 to 16 (≈ 14.3 to 28.7 µM) | 32 to 64 (≈ 57.3 to 115 µM) | 8 to 16 (≈ 14.3 to 28.7 µM) | > 128
2 | NCCN1CCN(C(=O)N[C@@H](C(=O)N[C@H]2Cc3cccc(C(=O)O)c3OB2O)c2ccc(O)c(Cl)c2F)C(=O)C1=O (single isomer, unassigned) [Example 186] | 32 to 64 (≈ 54.1 to 108 µM) | 2 to 4 (≈ 3.38 to 6.76 µM) | 8 to 16 (≈ 13.5 to 27 µM) | > 128 | 32 to 64 (≈ 54.1 to 108 µM) | 2 to 4 (≈ 3.38 to 6.76 µM) | < 0.25 | 0.5 to 1 (≈ 0.845 to 1.69 µM) | 8 to 16 (≈ 13.5 to 27 µM) | 32 to 64 (≈ 54.1 to 108 µM) | 8 to 16 (≈ 13.5 to 27 µM) | 32 to 64 (≈ 54.1 to 108 µM)
3 | NCCN1CCN(C(=O)N[C@H](C(=O)N[C@H]2Cc3cccc(C(=O)O)c3OB2O)c2ccc(O)c(Cl)c2F)C(=O)C1=O (single isomer, unassigned) [Example 187] | > 128 | 8 to 16 (≈ 13.5 to 27 µM) | 32 to 64 (≈ 54.1 to 108 µM) | > 128 | > 128 | 32 to 64 (≈ 54.1 to 108 µM) | 2 to 4 (≈ 3.38 to 6.76 µM) | 2 to 4 (≈ 3.38 to 6.76 µM) | > 128 | > 128 | > 128 | > 128
4 | CS(=O)(=O)N1CCN(C(=O)N[C@@H](C(=O)N[C@H]2Cc3ccc(F)c(C(=O)O)c3OB2O)c2cc(F)c(O)c(O)c2Cl)C1=O (single isomer, unassigned) [Example 189] | > 128 | 2 to 4 (≈ 3.16 to 6.32 µM) | 8 to 16 (≈ 12.6 to 25.3 µM) | 0.5 to 1 (≈ 0.79 to 1.58 µM) | 2 to 4 (≈ 3.16 to 6.32 µM) | 0.5 to 1 (≈ 0.79 to 1.58 µM) | 0.5 to 1 (≈ 0.79 to 1.58 µM) | 0.5 to 1 (≈ 0.79 to 1.58 µM) | 8 to 16 (≈ 12.6 to 25.3 µM) | 8 to 16 (≈ 12.6 to 25.3 µM) | 2 to 4 (≈ 3.16 to 6.32 µM) | 2 to 4 (≈ 3.16 to 6.32 µM)
5 | NCCN1CCN(C(=O)N[C@@H](C(=O)N[C@H]2Cc3cccc(C(=O)O)c3OB2O)c2c(O)cc(O)cc2F)C(=O)C1=O (single isomer, unassigned) [Example 194] | 8 to 16 (≈ 14 to 27.9 µM) | 2 to 4 (≈ 3.49 to 6.98 µM) | 8 to 16 (≈ 14 to 27.9 µM) | 32 to 64 (≈ 55.8 to 112 µM) | 32 to 64 (≈ 55.8 to 112 µM) | 2 to 4 (≈ 3.49 to 6.98 µM) | 0.5 to 1 (≈ 0.872 to 1.74 µM) | 0.5 to 1 (≈ 0.872 to 1.74 µM) | 8 to 16 (≈ 14 to 27.9 µM) | 32 to 64 (≈ 55.8 to 112 µM) | 8 to 16 (≈ 14 to 27.9 µM) | > 128
6 | NCCCN1CCN(C(=O)N[C@@H](C(=O)N[C@H]2Cc3cccc(C(=O)O)c3OB2O)c2c(O)cc(O)cc2F)C(=O)C1=O (single isomer, unassigned) [Example 195] | 8 to 16 (≈ 13.6 to 27.2 µM) | 2 to 4 (≈ 3.41 to 6.81 µM) | 8 to 16 (≈ 13.6 to 27.2 µM) | 32 to 64 (≈ 54.5 to 109 µM) | 32 to 64 (≈ 54.5 to 109 µM) | 2 to 4 (≈ 3.41 to 6.81 µM) | 0.5 to 1 (≈ 0.851 to 1.7 µM) | 0.5 to 1 (≈ 0.851 to 1.7 µM) | 8 to 16 (≈ 13.6 to 27.2 µM) | 32 to 64 (≈ 54.5 to 109 µM) | 8 to 16 (≈ 13.6 to 27.2 µM) | > 128
7 | NCCN1CCN(C(=O)N[C@@H](C(=O)N[C@H]2Cc3cccc(C(=O)O)c3OB2O)c2ccc(O)c([N+](=O)[O-])c2)C(=O)C1=O (single isomer, unassigned) [Example 199] | > 128 | 2 to 4 (≈ 3.42 to 6.85 µM) | 8 to 16 (≈ 13.7 to 27.4 µM) | > 128 | > 128 | 8 to 16 (≈ 13.7 to 27.4 µM) | 0.5 to 1 (≈ 0.856 to 1.71 µM) | 0.5 to 1 (≈ 0.856 to 1.71 µM) | > 128 | > 128 | 32 to 64 (≈ 54.8 to 110 µM) | > 128
8 | O=C(NCCCN1CCN(C(=O)NC(C(=O)N[C@H]2Cc3cccc(C(=O)O)c3OB2O)c2ncc(O)cc2F)C(=O)C1=O)c1ccc(O)c(O)c1Cl (stereo partly drawn) [Example 1, (3R)-3-(2-(4-(3-(2-chloro-3,4-dihydroxybenzamido)propyl)-2,3-dioxopiperazine-1-carboxamido)-2-(3-fluoro-5-hydroxypyridin-2-yl)acetamido)-2-hydroxy-3,4-dihydro-2H-benzo[e][1,2]oxaborinine-8-carboxylic acid] | 8 to 16 (≈ 10.8 to 21.5 µM) | 8 to 16 (≈ 10.8 to 21.5 µM) |  |  | 32 to 64 (≈ 43.1 to 86.2 µM) | 8 to 16 (≈ 10.8 to 21.5 µM) |  | 8 to 16 (≈ 10.8 to 21.5 µM) | 32 to 64 (≈ 43.1 to 86.2 µM) | 32 to 64 (≈ 43.1 to 86.2 µM) | > 128 | 
9 | C[C@H]1CN(CCNC(=O)c2ccc(O)c(O)c2Cl)C(=O)C(=O)N1C(=O)NC(C(=O)N[C@H]1Cc2cccc(C(=O)O)c2OB1O)c1ncc(O)cc1F (stereo partly drawn) [Example 2, (3R)-3-(2-((S)-4-(2-(2-chloro-3,4-dihydroxybenzamido)ethyl)-6-methyl-2,3-dioxopiperazine-1-carboxamido)-2-(3-fluoro-5-hydroxypyridin-2-yl)acetamido)-2-hydroxy-3,4-dihydro-2H-benzo[e][1,2]oxaborinine-8-carboxylic acid] | 2 to 4 (≈ 2.69 to 5.38 µM) | 0.5 to 1 (≈ 0.673 to 1.35 µM) |  |  | 8 to 16 (≈ 10.8 to 21.5 µM) | 2 to 4 (≈ 2.69 to 5.38 µM) |  | 0.5 to 1 (≈ 0.673 to 1.35 µM) | 2 to 4 (≈ 2.69 to 5.38 µM) | 8 to 16 (≈ 10.8 to 21.5 µM) | 8 to 16 (≈ 10.8 to 21.5 µM) | 
10 | O=C(NCCCN1CCN(C(=O)NC(C(=O)N[C@H]2Cc3ccc(F)c(C(=O)O)c3OB2O)c2ncc(O)cc2F)C(=O)C1=O)c1ccc(O)c(O)c1Cl (stereo partly drawn) [Example 3, (3R)-3-(2-(4-(3-(2-chloro-3,4-dihydroxybenzamido)propyl)-2,3-dioxopiperazine-1-carboxamido)-2-(3-fluoro-5-hydroxypyridin-2-yl)acetamido)-7-fluoro-2-hydroxy-3,4-dihydro-2H-benzo[e][1,2]oxaborinine-8-carboxylic acid] | 32 to 64 (≈ 42.1 to 84.1 µM) | 32 to 64 (≈ 42.1 to 84.1 µM) |  |  | 32 to 64 (≈ 42.1 to 84.1 µM) | 32 to 64 (≈ 42.1 to 84.1 µM) |  | 8 to 16 (≈ 10.5 to 21 µM) | 32 to 64 (≈ 42.1 to 84.1 µM) | > 128 | > 128 | 
